The text below walks through data of patent US7932254B2, “Pyrrolopyrazine kinase inhibitors” (Roche Palo Alto, priority 2008, dated 2011).

By IC50 is commonly meant the concentration that inhibits the measured activity by half. A word on the melting point: it is the temperature of the solid-liquid transition.

The target in one data set is JAK3 (recombinant human kinase domain) (Homo sapiens, UniProt P52333). As to the kind of experiment: Determination of IC50 of Janus Kinase (JAK) inhibition, radioactive end-point 33P-ATP assay, JAK3. The format is biochemical. The conditions noted are these: ATP 1.5 uM, peptide 50 uM, 20 minutes, room temperature, read-out: IC50 h-jak3-sf21-c. The text has this: Determination of IC50 of Janus Kinase (JAK) Inhibition: […]
JAK3 (recombinant human kinase domain), sequence (P52333 822-1111 limits assumed): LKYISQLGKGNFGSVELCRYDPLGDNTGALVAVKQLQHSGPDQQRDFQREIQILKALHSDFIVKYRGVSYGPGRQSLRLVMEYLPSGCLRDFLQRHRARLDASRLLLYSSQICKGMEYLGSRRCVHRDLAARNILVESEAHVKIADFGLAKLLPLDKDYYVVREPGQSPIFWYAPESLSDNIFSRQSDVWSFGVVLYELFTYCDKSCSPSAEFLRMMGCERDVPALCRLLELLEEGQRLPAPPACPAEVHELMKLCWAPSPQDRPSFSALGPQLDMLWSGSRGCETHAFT
For the compound `CC(C)(C)C(=O)c1c[nH]c2ncc(-c3ccc4c(ccn4Cc4ccncc4)c3)nc12` [Compound I-49, 2,2-Dimethyl-1-[2-(1-pyridin-4-ylmethyl-1H-indol-5-yl)-5H-pyrrolo[2,3-b]pyrazin-7-yl]-propan-1-one], the half-maximal inhibitory concentration (IC50) was found to be 152 nM.

With `CN1CC=C(c2c[nH]c3ccc(-c4cnc5[nH]cc(C(=O)C(C)(C)C)c5n4)cc23)CC1` [Compound I-50, 2,2-Dimethyl-1-{2-[3-(1-methyl-1,2,3,6-tetrahydro-pyridin-4-yl)-1H-indol-5-yl]-5H-pyrrolo[2,3-b]pyrazin-7-yl}-propan-1-one], the IC50 amounted to 155 nM.

Regarding `CC1(C(=O)c2c[nH]c3ncc(-c4ccc5[nH]ccc5c4)nc23)CCCCC1` [Compound I-52, [2-(1H-Indol-5-yl)-5H-pyrrolo[2,3-b]pyrazin-7-yl]-(1-methyl-cyclohexyl)-methanone], the IC50 came out at 32.4 nM.

Turning to `CN(c1cc(-c2cnc3[nH]cc(C(=O)C(C)(C)C)c3n2)cc2[nH]ccc12)S(=O)(=O)c1ccc(N)cc1` [Compound I-54, 4-Amino-N-{6-[7-(2,2-dimethyl-propionyl)-5H-pyrrolo[2,3-b]pyrazin-2-yl]-1H-indol-4-yl}-N-methyl-benzenesulfonamide], the IC50 came out at 158 nM.

Tested on in the next data set: not given
Experiment: not given
Details: not given
Take `CN1CCOc2cc(-c3cnc4[nH]cc(C(=O)C(C)(C)C)c4n3)ccc21` [Compound I-3, 2,2-Dimethyl-1-[2-(4-methyl-3,4-dihydro-2H-benzo[1,4]oxazin-7-yl)-5H-pyrrolo[2,3-b]pyrazin-7-yl]-propan-1-one]: the melting point lay within 233 to 234 °C.

On to `CC(C)(C)C(=O)c1c[nH]c2ncc(-c3ccc4c(c3)NC(=O)C(C)(C)O4)nc12` [Compound I-7, 6-[7-(2,2-Dimethyl-propionyl)-5H-pyrrolo[2,3-b]pyrazin-2-yl]-2,2-dimethyl-4H-benzo[1,4]oxazin-3-one], for which the melting point was above 300 °C.

For the compound `CN1CCOc2ccc(-c3cnc4[nH]cc(C(=O)C(C)(C)C)c4n3)cc21` [Compound I-8, 2,2-Dimethyl-1-[2-(4-methyl-3,4-dihydro-2H-benzo[1,4]oxazin-6-yl)-5H-pyrrolo[2,3-b]pyrazin-7-yl]-propan-1-one], the melting point was in the range of 255 to 265 °C.

`CC(C)(C)C(=O)c1c[nH]c2ncc(-c3ccc4c(c3)NC(=O)CO4)nc12` [Compound I-9, 6-[7-(2,2-Dimethyl-propionyl)-5H-pyrrolo[2,3-b]pyrazin-2-yl]-4H-benzo[1,4]oxazin-3-one] returned a melting point above 350 °C.

The compound `CN1C(=O)COc2ccc(-c3cnc4[nH]cc(C(=O)C(C)(C)C)c4n3)cc21` [Compound I-10, 6-[7-(2,2-Dimethyl-propionyl)-5H-pyrrolo[2,3-b]pyrazin-2-yl]-4-methyl-4H-benzo[1,4]oxazin-3-one] came in with a melting point of 277 to 278 °C.

Regarding `CC(C)(C)C(=O)c1c[nH]c2ncc(-c3cc(NS(=O)(=O)c4ccc(N)cc4)c4cc[nH]c4c3)nc12` [Compound I-19, 4-Amino-N-{6-[7-(2,2-dimethyl-propionyl)-5H-pyrrolo[2,3-b]pyrazin-2-yl]-1H-indol-4-yl}-benzenesulfonamide], the melting point was 285 to 292 °C.

In turn, `CC1(C(=O)c2c[nH]c3ncc(-c4ccc5c(c4)NC(=O)C(C)(C)O5)nc23)CCCCC1` [Compound I-21, 2,2-Dimethyl-6-[7-(1-methyl-cyclohexanecarbonyl)-5H-pyrrolo[2,3-b]pyrazin-2-yl]-4H-benzo[1,4]oxazin-3-one] showed a melting point above 300 °C.

In the case of `CC(C)(C)C(=O)c1c[nH]c2ncc(-c3ccc4c(c3)SCC(=O)N4)nc12` [Compound I-22, 7-[7-(2,2-Dimethyl-propionyl)-5H-pyrrolo[2,3-b]pyrazin-2-yl]-4H-benzo[1,4]thiazin-3-one], the melting point was above 300 °C.

In the case of `CC(C)(C)C(=O)c1c[nH]c2ncc(-c3cc(NS(C)(=O)=O)c4cc[nH]c4c3)nc12` [Compound I-26, N-{6-[7-(2,2-Dimethyl-propionyl)-5H-pyrrolo[2,3-b]pyrazin-2-yl]-1H-indol-4-yl}-methanesulfonamide], the melting point is above 300 °C.

Take `CC(C)(C)C(=O)c1c[nH]c2ncc(-c3cc(NS(=O)(=O)c4ccccc4)c4cc[nH]c4c3)nc12` [Compound I-27, N-{6-[7-(2,2-Dimethyl-propionyl)-5H-pyrrolo[2,3-b]pyrazin-2-yl]-1H-indol-4-yl}-benzenesulfonamide]: the melting point lay in the range of 275 to 285 °C.

With `CC(C)(C)C(=O)c1c[nH]c2ncc(-c3cc(NS(=O)(=O)c4ccc(Cl)cc4)c4cc[nH]c4c3)nc12` [Compound I-33, 4-Chloro-N-{6-[7-(2,2-dimethyl-propionyl)-5H-pyrrolo[2,3-b]pyrazin-2-yl]-1H-indol-4-yl}-benzenesulfonamide], the melting point is 264 to 266 °C.

`CC(C)(C)C(=O)c1c[nH]c2ncc(-c3cc(NS(=O)(=O)c4ccc(F)cc4)c4cc[nH]c4c3)nc12` [Compound I-34, N-{6-[7-(2,2-Dimethyl-propionyl)-5H-pyrrolo[2,3-b]pyrazin-2-yl]-1H-indol-4-yl}-4-fluoro-benzenesulfonamide] yielded a melting point of 295 to 297 °C.

`COc1ccc(S(=O)(=O)Nc2cc(-c3cnc4[nH]cc(C(=O)C(C)(C)C)c4n3)cc3[nH]ccc23)cc1` [Compound I-35, N-{6-[7-(2,2-Dimethyl-propionyl)-5H-pyrrolo[2,3-b]pyrazin-2-yl]-1H-indol-4-yl}-4-methoxy-benzenesulfonamide] showed a melting point of 231 to 233 °C.

Compound `CC(C)(C)C(=O)c1c[nH]c2ncc(-c3cc(NS(=O)(=O)c4cccnc4)c4cc[nH]c4c3)nc12` [Compound I-37, Pyridine-3-sulfonic acid {6-[7-(2,2-dimethyl-propionyl)-5H-pyrrolo[2,3-b]pyrazin-2-yl]-1H-indol-4-yl}-amide] displayed a melting point of 305 to 307 °C.

Turning to `CN1CCOc2cc(-c3cnc4[nH]cc(C(=O)C5(C)CCCCC5)c4n3)ccc21` [Compound I-39, (1-Methyl-cyclohexyl)-[2-(4-methyl-3,4-dihydro-2H-benzo[1,4]oxazin-7-yl)-5H-pyrrolo[2,3-b]pyrazin-7-yl]-methanone], the melting point lay in the range of 243 to 244 °C.

In the case of `CC(C)(C)C(=O)c1c[nH]c2ncc(-c3ccc4c(ccn4Cc4ccccn4)c3)nc12` [Compound I-46, 2,2-Dimethyl-1-[2-(1-pyridin-2-ylmethyl-1H-indol-5-yl)-5H-pyrrolo[2,3-b]pyrazin-7-yl]-propan-1-one], the melting point fell in the range of 194 to 196 °C.

As for `CC(C)(C)C(=O)c1c[nH]c2ncc(-c3ccc4c(ccn4Cc4cccnc4)c3)nc12` [Compound I-48, 2,2-Dimethyl-1-[2-(1-pyridin-3-ylmethyl-1H-indol-5-yl)-5H-pyrrolo[2,3-b]pyrazin-7-yl]-propan-1-one], the melting point fell in the range of 170 to 171 °C.

In turn, `CC(C)(C)C(=O)c1c[nH]c2ncc(-c3ccc4c(ccn4Cc4ccncc4)c3)nc12` [Compound I-49, 2,2-Dimethyl-1-[2-(1-pyridin-4-ylmethyl-1H-indol-5-yl)-5H-pyrrolo[2,3-b]pyrazin-7-yl]-propan-1-one] registered a melting point of 241 to 243 °C.

The compound `CN1CC=C(c2c[nH]c3ccc(-c4cnc5[nH]cc(C(=O)C(C)(C)C)c5n4)cc23)CC1` [Compound I-50, 2,2-Dimethyl-1-{2-[3-(1-methyl-1,2,3,6-tetrahydro-pyridin-4-yl)-1H-indol-5-yl]-5H-pyrrolo[2,3-b]pyrazin-7-yl}-propan-1-one] yielded a melting point of 263 to 265 °C.

In the case of `CC(C)(C)C(=O)c1c[nH]c2ncc(-c3cc(N4CCCC4)ccn3)nc12` [Example 6, 2,2-Dimethyl-1-[2-(4-pyrrolidin-1-yl-pyridin-2-yl)-5H-pyrrolo[2,3-b]pyrazin-7-yl]-propan-1-one], the melting point fell in the range of 260 to 263 °C.

Turning to `CC(C)(C)C(=O)c1c[nH]c2ncc(-c3ccccn3)nc12` [Example 8, 2,2-Dimethyl-1-(2-pyridin-2-yl-5H-pyrrolo[2,3-b]pyrazin-7-yl)-propan-1-one], the melting point fell in the range of 276 to 278 °C.

`CCc1cccc(-c2cnc3[nH]cc(C(=O)C(C)(C)C)c3n2)c1` [Example 9, 1-[2-(3-Ethyl-phenyl)-5H-pyrrolo[2,3-b]pyrazin-7-yl]-2,2-dimethyl-propan-1-one] gave a melting point of 199 to 200.1 °C.
